From patent EP0326579B1, “IMPROVEMENT OF THE BIOCOMPATIBILITY OF SOLID SURFACES” (BIO-METRIC SYSTEMS, INC., priority 1986, dated 1988)

Experiments:
Bovine endothelial cells [1] = assay: Outgrowth measurement using endothelial cells from a point of origin; type: cell-based; conditions: treated polyvinyl chloride surface
Bovine endothelial cells [2] = assay: Attachment of endothelial cells to modified plastic surfaces (viable cell counts, trypan blue); type: cell-based; conditions: treated polyvinyl chloride surface; number of viable cells attached to each piece
Protocol: B. Attachment of Bovine Endothelial Cells to Modified Plastic Surfaces. Bovine endothelial cells were collected from fetal animals 8-24" in length. Cornea, aorta and umbilical endothelial cells were harvested aseptically. Cells were grown in a 5% CO₂ incubator at 37°C in a known high glucose cell growth medium such as Dulbecco's modified Eagle's medium (described in R. Dulbecco and G. Freeman, Virology, Vol. 8:396 (1959) and J. D. Smith, G. Freeman, M. Vogt and R. Dulbecco, Virology, Vol. 12:185-196 (1960)) with 25mmole HEPES buffer, 10% bovine calf serum, and 2.5 micrograms amphotericin B/ml (the "growth media"). Once the plates, tubes or sheets were prepared; cell cultures were prepared from primary cell lines. The cells were detached from the cell culture surface with a 0.25% solution of trypsin and resuspended in the growth media. Cells were then counted using a trypan blue (0.4%) solution and a hemocytometer. Various concentrations of cells were layered on the prepared materials. Cell attachment was monitored for various time periods from 5 minutes to 14 days. Attachments were determined by at least two methods. In one, sample materials were removed from culture media and washed 2 times with sterile saline. Cell stains were then applied and total cells on the surface were counted. A second method was to trypsinize the cells off the surface with a trypsin solution and count using the trypan blue method. Representive results of the attachment and outgrowth of endothelial cells on precoated polyvinyl chloride plastic pieces are reported in Table 3. The number of viable cells attached to each piece were determined by trypan blue staining procedures.

Substance	7-day outgrowth (Bovine endothelial cells [1])	3-day cell counts (Bovine endothelial cells [2])	7-day cell counts (Bovine endothelial cells [2])
BBA-COL: Human placenta Type IV collagen coupled to the NOS ester of benzoylbenzoic acid	2.5-4.0 mm	5749	21500
ANP-EAC-COL: Human placenta Type IV collagen coupled to ANP-EAC-NOS (photolabeled collagen)	1.0-3.0 mm	14500	15833
